Where two headings read alike, the source gives them in different places.
Experiments:
[1] = Rat pharmacokinetic and tissue distribution study, oral dosing
Protocol: Table S2. […] Plasma, small intestine, colon, and colon contents were sampled at terminal time points. Tissues and content were homogenized in buffer (1:1 PBS:ethanol with EDTA-free protease inhibitor tablets [Roche]). All samples were analyzed using LC-MS/MS.

[2] = target: T1, 5-HT1B (serotonin 1B receptor) (Rattus norvegicus, UniProt P28564); test: SafetyScreen44: 5-HT1B; type: binding
T1 construct: purchased Eurofins Cerep SafetyScreen44

[3] = target: T2, Lck kinase (lymphocyte-specific protein tyrosine kinase) (Homo sapiens, UniProt P06239); test: SafetyScreen44: Lck kinase; type: biochemical
T2 construct: purchased Eurofins Cerep SafetyScreen44

[4] = target: T3, AR (androgen receptor) (Homo sapiens, UniProt P10275, T878A); test: SafetyScreen44: AR; type: binding
T3 construct: purchased Eurofins Cerep SafetyScreen44
T3 sequence (P10275 1-920 T878A): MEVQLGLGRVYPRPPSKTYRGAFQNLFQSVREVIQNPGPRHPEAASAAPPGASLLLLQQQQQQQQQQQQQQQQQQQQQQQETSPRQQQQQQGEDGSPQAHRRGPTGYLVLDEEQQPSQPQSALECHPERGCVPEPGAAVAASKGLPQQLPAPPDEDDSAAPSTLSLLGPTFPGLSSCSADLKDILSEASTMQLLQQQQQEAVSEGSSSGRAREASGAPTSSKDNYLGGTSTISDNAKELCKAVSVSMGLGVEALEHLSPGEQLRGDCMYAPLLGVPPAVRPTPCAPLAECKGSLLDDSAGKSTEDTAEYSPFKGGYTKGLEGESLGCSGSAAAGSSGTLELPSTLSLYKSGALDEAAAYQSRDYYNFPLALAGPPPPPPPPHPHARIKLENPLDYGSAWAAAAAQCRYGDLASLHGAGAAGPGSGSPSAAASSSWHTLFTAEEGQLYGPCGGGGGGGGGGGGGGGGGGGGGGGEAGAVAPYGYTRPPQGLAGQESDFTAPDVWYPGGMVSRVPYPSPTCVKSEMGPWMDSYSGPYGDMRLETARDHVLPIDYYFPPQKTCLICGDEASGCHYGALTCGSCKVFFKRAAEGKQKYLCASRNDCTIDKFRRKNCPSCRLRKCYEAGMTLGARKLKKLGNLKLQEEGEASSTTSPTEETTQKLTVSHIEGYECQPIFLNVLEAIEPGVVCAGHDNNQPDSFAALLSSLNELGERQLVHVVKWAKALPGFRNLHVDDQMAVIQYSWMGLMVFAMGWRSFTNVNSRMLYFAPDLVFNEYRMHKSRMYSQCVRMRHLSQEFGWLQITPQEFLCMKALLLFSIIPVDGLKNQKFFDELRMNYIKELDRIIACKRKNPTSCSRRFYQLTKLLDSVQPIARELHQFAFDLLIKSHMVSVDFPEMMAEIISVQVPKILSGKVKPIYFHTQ

[5] = target: T4, 5-HT1A (serotonin 1A receptor) (Homo sapiens, UniProt P08908); test: SafetyScreen44: 5-HT1A; type: binding
T4 construct: purchased Eurofins Cerep SafetyScreen44
T4 sequence (P08908 1-422): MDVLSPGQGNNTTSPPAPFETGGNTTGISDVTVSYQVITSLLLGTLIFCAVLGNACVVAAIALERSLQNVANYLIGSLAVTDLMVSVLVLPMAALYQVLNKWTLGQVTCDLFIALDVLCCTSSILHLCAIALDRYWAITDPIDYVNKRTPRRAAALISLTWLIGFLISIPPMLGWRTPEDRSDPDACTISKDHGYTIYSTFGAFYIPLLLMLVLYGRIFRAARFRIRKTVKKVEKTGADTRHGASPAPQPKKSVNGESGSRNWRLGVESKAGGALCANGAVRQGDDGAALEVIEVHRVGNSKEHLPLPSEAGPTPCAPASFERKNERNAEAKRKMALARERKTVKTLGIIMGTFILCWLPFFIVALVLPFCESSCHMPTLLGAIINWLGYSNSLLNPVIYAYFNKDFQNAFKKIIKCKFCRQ

[6] = target: T5, M3 (muscarinic acetylcholine receptor M3) (Homo sapiens, UniProt P20309); test: SafetyScreen44: M3; type: binding
T5 construct: purchased Eurofins Cerep SafetyScreen44

[7] = target: T6, α2A (alpha-2A adrenergic receptor) (Homo sapiens, UniProt P08913); test: SafetyScreen44: α2A; type: binding
T6 construct: purchased Eurofins Cerep SafetyScreen44
T6 sequence (P08913 1-465): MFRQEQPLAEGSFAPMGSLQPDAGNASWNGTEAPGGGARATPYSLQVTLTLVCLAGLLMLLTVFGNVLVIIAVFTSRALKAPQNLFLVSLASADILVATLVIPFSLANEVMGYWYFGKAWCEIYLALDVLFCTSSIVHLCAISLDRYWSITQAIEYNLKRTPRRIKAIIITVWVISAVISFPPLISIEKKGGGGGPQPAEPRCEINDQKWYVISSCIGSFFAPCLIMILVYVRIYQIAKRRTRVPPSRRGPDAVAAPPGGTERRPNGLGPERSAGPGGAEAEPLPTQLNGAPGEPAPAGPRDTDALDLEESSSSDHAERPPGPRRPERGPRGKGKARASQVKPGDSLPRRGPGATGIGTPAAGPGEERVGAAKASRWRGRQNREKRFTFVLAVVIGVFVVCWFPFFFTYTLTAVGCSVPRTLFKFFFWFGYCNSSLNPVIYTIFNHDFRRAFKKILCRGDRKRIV

[8] = target: T7, δ (DOP) (delta opioid receptor) (Homo sapiens, UniProt P41143); test: SafetyScreen44: δ (DOP); type: binding
T7 construct: purchased Eurofins Cerep SafetyScreen44

[9] = male Sprague-Dawley rats, 10 mg/kg oral, n=4/timepoint, homogenate, LC-MS/MS
[10] = male Sprague-Dawley rats, 10 mg/kg oral, n=4/timepoint, tissue homogenate, LC-MS/MS
[11] = male, Sprague-Dawley, rat, in vivo, po, 10 mg/kg

T1 sequence (P28564 whole entry): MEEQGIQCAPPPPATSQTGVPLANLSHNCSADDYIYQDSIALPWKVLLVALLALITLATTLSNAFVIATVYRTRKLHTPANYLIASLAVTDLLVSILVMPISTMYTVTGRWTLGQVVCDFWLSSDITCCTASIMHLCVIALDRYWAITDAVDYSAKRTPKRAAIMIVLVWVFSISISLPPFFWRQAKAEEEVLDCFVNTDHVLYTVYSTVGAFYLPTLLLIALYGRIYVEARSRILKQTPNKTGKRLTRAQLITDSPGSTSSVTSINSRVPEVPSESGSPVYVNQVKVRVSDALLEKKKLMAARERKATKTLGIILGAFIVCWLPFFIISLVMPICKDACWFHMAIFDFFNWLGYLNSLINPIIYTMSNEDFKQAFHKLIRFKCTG
T7 sequence (P41143 whole entry): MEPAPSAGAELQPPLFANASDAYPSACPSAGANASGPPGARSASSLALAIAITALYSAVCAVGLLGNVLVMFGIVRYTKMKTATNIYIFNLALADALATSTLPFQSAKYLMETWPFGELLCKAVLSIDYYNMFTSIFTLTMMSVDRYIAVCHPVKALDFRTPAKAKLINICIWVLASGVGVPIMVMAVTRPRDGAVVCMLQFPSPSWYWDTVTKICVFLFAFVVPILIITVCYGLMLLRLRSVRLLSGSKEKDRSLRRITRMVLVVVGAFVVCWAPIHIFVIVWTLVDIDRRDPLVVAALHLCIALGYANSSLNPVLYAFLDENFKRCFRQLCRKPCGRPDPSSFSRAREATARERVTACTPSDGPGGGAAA
T5 sequence (P20309 whole entry): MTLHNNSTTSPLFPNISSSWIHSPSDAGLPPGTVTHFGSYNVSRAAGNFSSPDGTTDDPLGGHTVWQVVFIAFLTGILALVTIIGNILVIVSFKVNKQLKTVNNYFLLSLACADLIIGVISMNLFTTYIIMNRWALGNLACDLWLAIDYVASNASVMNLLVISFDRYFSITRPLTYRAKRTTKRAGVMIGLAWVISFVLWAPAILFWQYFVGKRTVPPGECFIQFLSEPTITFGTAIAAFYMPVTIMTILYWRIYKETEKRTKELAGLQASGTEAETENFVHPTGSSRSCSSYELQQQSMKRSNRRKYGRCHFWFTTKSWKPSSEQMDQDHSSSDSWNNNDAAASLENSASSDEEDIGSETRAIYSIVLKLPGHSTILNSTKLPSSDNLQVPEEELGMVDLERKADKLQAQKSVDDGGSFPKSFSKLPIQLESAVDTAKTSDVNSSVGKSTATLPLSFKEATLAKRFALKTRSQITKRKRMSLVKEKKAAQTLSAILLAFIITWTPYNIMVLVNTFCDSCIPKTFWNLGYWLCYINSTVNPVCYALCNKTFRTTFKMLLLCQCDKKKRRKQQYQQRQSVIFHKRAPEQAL
T2 sequence (P06239 whole entry): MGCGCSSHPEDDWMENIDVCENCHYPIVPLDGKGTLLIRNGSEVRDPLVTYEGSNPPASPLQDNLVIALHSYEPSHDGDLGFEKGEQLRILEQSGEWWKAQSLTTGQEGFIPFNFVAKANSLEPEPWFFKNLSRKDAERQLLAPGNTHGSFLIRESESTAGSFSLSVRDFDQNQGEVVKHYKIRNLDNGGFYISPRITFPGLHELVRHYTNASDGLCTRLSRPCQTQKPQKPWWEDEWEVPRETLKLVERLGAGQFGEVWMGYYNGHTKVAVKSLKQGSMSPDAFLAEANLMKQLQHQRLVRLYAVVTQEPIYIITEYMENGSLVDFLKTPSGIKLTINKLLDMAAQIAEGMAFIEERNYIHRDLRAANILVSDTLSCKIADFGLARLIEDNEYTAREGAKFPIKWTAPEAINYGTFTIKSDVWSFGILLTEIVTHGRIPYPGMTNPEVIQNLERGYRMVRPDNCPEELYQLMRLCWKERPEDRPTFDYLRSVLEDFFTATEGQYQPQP

## CC(=O)NCCCC[C@@H]1NC(=O)[C@H](Cc2c[nH]c3c(C)cccc23)NC(=O)[C@H]([C@@H](C)O)NC(=O)[C@H](CC(N)=O)NC(=O)[C@@H](NC(C)=O)C(C)(C)SSC(C)(C)[C@@H](C(=O)N[C@@H](Cc2ccc(OCCN)cc2)C(=O)N[C@@H](Cc2ccc3ccccc3c2)C(=O)NC2(C(=O)N[C@@H](CCC(=O)O)C(=O)N[C@@H](CC(N)=O)C(=O)N[C@@H](Cc3cccnc3)C(=O)N(C)CC(N)=O)CCOCC2)NC1=O [JNJ-77242113, S^3,1,S^3,6-cyclo[N-acetyl-3-sulfanyl-L-valyl-L-asparaginyl-L-threonyl-7-methyl-L-tryptophyl-N^6-acetyl-L-lysyl-3-sulfanyl-L-valyl-O-(2-aminoethyl)-L-tyrosyl-3-(naphthalen-2-yl)-L-alanyl-4-aminooxan-4-carbonyl-L-α-glutamyl-L-asparaginyl-3-(pyridin-3-yl)-L-alanyl-N^2-methylglycinamide]]
[1]; [9]
  AUClast, colon content: 1,700,000 ng·hr/g
  Cmax, colon content: 371,000 ng/g
  Tmax, colon content: 6 h
[1]; [10]
  AUClast, colon: 5,670 ng·hr/g
  Cmax, colon: 1,380 ng/g
  Tmax, colon: 6 h
[1]; [11]
  AUC(0-t): 23.1 ng·h/mL
  Cmax: 6.49 ng/mL
  Tmax: 3 h
[1]; rat, oral dosing, data not shown
  Oral bioavailability: low oral bioavailability
[2]; 1st run, read-out: Percent inhibition of control ligand binding, 5-HT1B, 1st run
  inhibition at 10 µM: 0%
[2]; 2nd run, read-out: Percent inhibition of control ligand binding, 5-HT1B, 2nd run
  inhibition at 10 µM: -9.8%
[2]; mean of 2 runs, read-out: Percent inhibition of control ligand binding, 5-HT1B, Mean
  inhibition at 10 µM: -4.9%
[3]; 1st run, read-out: Percent inhibition of control ligand binding, Lck kinase, 1st run
  inhibition at 10 µM: 8.6%
[3]; 2nd run, read-out: Percent inhibition of control ligand binding, Lck kinase, 2nd run
  inhibition at 10 µM: -2.3%
[3]; mean of 2 runs, read-out: Percent inhibition of control ligand binding, Lck kinase, Mean
  inhibition at 10 µM: 3.1%
[4]; 1st run, read-out: Percent inhibition of control ligand binding, AR, 1st run
  inhibition at 10 µM: -5.6%
[4]; 2nd run, read-out: Percent inhibition of control ligand binding, AR, 2nd run
  inhibition at 10 µM: -3.7%
[4]; mean of 2 runs, read-out: Percent inhibition of control ligand binding, AR, Mean
  inhibition at 10 µM: -4.7%
[5]; 1st run, read-out: Percent inhibition of control ligand binding, 5-HT1A, 1st run
  inhibition at 10 µM: -5.6%
[5]; 2nd run, read-out: Percent inhibition of control ligand binding, 5-HT1A, 2nd run
  inhibition at 10 µM: 2.8%
[5]; mean of 2 runs, read-out: Percent inhibition of control ligand binding, 5-HT1A, Mean
  inhibition at 10 µM: -1.4%
[6]; 1st run, read-out: Percent inhibition of control ligand binding, M3, 1st run
  inhibition at 10 µM: -10.5%
[6]; 2nd run, read-out: Percent inhibition of control ligand binding, M3, 2nd run
  inhibition at 10 µM: -5.2%
[6]; mean of 2 runs, read-out: Percent inhibition of control ligand binding, M3, Mean
  inhibition at 10 µM: -7.8%
[7]; 1st run, read-out: Percent inhibition of control ligand binding, α2A, 1st run
  inhibition at 10 µM: 0.4%
[7]; 2nd run, read-out: Percent inhibition of control ligand binding, α2A, 2nd run
  inhibition at 10 µM: -2.6%
[7]; mean of 2 runs, read-out: Percent inhibition of control ligand binding, α2A, Mean
  inhibition at 10 µM: -1.1%
[8]; 1st run, read-out: Percent inhibition of control ligand binding, δ (DOP), 1st run
  inhibition at 10 µM: -7.8%
[8]; 2nd run, read-out: Percent inhibition of control ligand binding, δ (DOP), 2nd run
  inhibition at 10 µM: 0.4%
[8]; mean of 2 runs, read-out: Percent inhibition of control ligand binding, δ (DOP), Mean
  inhibition at 10 µM: -3.7%

— paper PMC11289455 (Scientific Reports, 2024)
